Data taken from patent US9353188B2, “Modulators of Plexin B2 activity” (President and Fellows of Harvard College, priority 2011, dated 2016).
Where two headings read alike, the source gives them in different places. Residues, ends and D or L forms follow the SMILES beside them.

Experiments:
ANG protein = ANG protein (Homo sapiens, UniProt P03950); experiment: binding of Plexin B2 peptides to ANG by ELISA and equilibrium dialysis
LNCaP cells = experiment: LNCaP cell proliferation in phenol red-free and steroid-free medium; type: cell-based, human; settings: for LNCaP cell proliferation: steroid-free medium, DHT 10 nM, ANG 0.1 μg/ml, or a mixture of the two
Protocol: (A) HUVE and LNCaP cells were cultured at the density indicated, and incubated with 0.1 μg/ml ANG for 2 h. Nuclear ANG were detected by indirect immunofluorescence with 26-2F and Alex 488 labeled 2nd antibody. (B) LNCaP cells were culture in phenol red-free and charcoal/dextran-stripped (steroid-free) FBS for 2 day and stimulated with DHT (10 nM), ANG (0.1 μg/ml), or a mixture of the two for the time indicated. (C) Dose dependence. ANG was added to the cells and cultured for 4 days. Cell numbers were determined with a Coulter counter.
ANG plays a dual role in prostate cancer progression. It not only mediates tumor angiogenesis but also directly stimulates cancer cell proliferation.

[1] = tested on: Plexin B2 transfectants of COS-7 cells; experiment: nuclear translocation of ANG in Plexin B2-transfected COS-7 cells; type: cell-based, monkey; settings: neomycin 10 min, then 1 μg/ml ANG for 2 h
Protocol: The Plexin B2 transfectants were treated with neomycin at the concentration indicated for 10 min and then incubated with 1 μg/ml ANG for 2 h. ANG was detected by immunofluorescence (top panels). Nuclei were stained by DAPI (middle panels). The merged images were shown in bottom panels.
The effect of neomycin on Plexin B2 transfectants of COS-7 cells was examined. […] Therefore, transfection of human Plexin B2 cDNA converted COS-7 cells into ANG responsive cells. In term of nuclear translocation of ANG, which is essential for the biological activity of ANG, Plexin B2 transfectants of COS-7 cells act in a similar fashion as do LNCaP cells and sparsely cultured HUVE cells, the two known ANG responsive cell lines.

[2] = tested on: ANG receptor expressing LNCaP cells; experiment: radio receptor assay, binding of 125I-ANG to LNCaP cells; design: species or system human; settings: 4° C., Scatchard analysis
Protocol: (A) Subconfluent LNCaP cells were incubated with ^125I-ANG at 4° C. for 30 min and bound ANG was determined by a gamma counter. (B) Scatchard plot of the results produced in experiment described in (A).
The thermodynamics of ANG binding to LNCaP cells was determined by a standard radio receptor assay. ANG was labeled with iodine-125 and incubated with ANG receptor expressing LNCaP cells at 4° C.

[3] = tested on: Plexin B2 transfectants of COS-7 cells; experiment: AKT phosphorylation in Plexin B2 transfectants of COS-7 cells (Western); type: cell-based, monkey; settings: not in vector control, ANG 2 h
Protocol: Vector (A-C) and Plexin B2 (D-F) transfected COS-7 cells were incubated with 1 μg/ml ANG for 2 h. ANG was detected by immunofluorescence (A and D). Nuclei were stained by DAPI (B and E). The merged images were shown in C and F. (G) Vector and Plexin B2 transfectants were incubated with ANG at the concentration indicated for 2 h. Cells were lysed, cell lysates (60 μg protein) were subjected for SDS-PAGE and Western analysis for phospho-AKT and total AKT with respective antibodies.
The phosphorylation status of AKT in the Plexin B2 transfectants of COS-7 cells was examined.

[4] = tested on: ANG receptor expressing LNCaP cells; settings: background statement, no data shown; cited from earlier work

ANG protein, sequence (P03950 25-147): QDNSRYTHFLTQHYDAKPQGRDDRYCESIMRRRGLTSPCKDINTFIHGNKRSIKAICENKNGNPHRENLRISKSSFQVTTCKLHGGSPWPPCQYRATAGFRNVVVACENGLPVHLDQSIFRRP

In the case of “LDKVHAKMEANRNAC (listed as Homo sapiens) [SEQ ID NO: 2]”, the “binding to ANG” value (ANG protein) is reported as “able to bind to ANG”.

In the case of `CC[C@H](C)[C@H](NC(=O)[C@H](CCC(=O)O)NC(=O)[C@@H](NC(=O)[C@H](CC(C)C)NC(=O)[C@@H](NC(=O)[C@H](CO)NC(=O)[C@H](CC(=O)O)NC(=O)[C@H](Cc1ccc(O)cc1)NC(=O)[C@H](CCC(=O)O)NC(=O)[C@H](CO)NC(=O)[C@H](CO)NC(=O)[C@@H](NC(=O)CN)[C@@H](C)O)[C@@H](C)CC)C(C)C)C(=O)N[C@@H](CC(N)=O)C(=O)N[C@@H](CCCCN)C(=O)N[C@@H](CCCNC(=N)N)C(=O)N[C@H](C(=O)N[C@@H](CCCCN)C(=O)O)C(C)C` [SEQ ID NO: 1, GTSSEYDSILVEINKRVK] (H-GTSSEYDSILVEINKRVK-OH; N-terminus and C-terminus assumed), the “binding to ANG” value (ANG protein) is reported as “able to bind to ANG”.

In the case of “RDGLRGTAVLQRGGLNL (listed as Homo sapiens) [SEQ ID NO: 3]”, the “binding to ANG” value (ANG protein) is reported as “able to bind to ANG”.

With `C[C@]12CCC(=O)C[C@@H]1CC[C@@H]1[C@@H]2CC[C@]2(C)[C@@H](O)CC[C@@H]12` [DHT, Dihydrotestosterone, reference compound] the LNCaP cell proliferation (LNCaP cells) was “stimulated LNCaP cell proliferation”.

With neomycin the “nuclear translocation of ANG” value [1] was “inhibits nuclear translocation of ANG in the Plexin B2 transfectants of COS-7 cells in a dose-dependent manner”.

In the case of “ANG: small, secreted protein Angiogenin, a potent inducer of angiogenesis; human ANG is SEQ ID NO: 5”, the “LNCaP cell proliferation, dose dependence” value (LNCaP cells; cultured for 4 days, cell numbers by Coulter counter) is reported as “stimulated LNCaP cell proliferation in a dose-dependent manner”, the LNCaP cell proliferation (LNCaP cells) is reported as “stimulated LNCaP cell proliferation in the absence of androgen” and the Kd ([2]; read-out: apparent Kd, first ANG binding site) is reported as 0.45 nM. The Kd ([2]; read-out: apparent Kd, second ANG binding site) was 170 nM and the AKT phosphorylation [3] was “induced AKT phosphorylation”.

B1: RNase A: protein with 35% amino acid identity to ANG, used on Sepharose column to remove non-specific proteins (protein, UniProt P61823 27-150, looked up)
Ribonuclease pancreatic: KETAAAKFERQHMDSSTSAASSSNYCNQMMKSRNLTKDRCKPVNTFVHESLADVQAVCSQKNVACKNGQTNCYQSYSTMSITDCRETGSSKYPNCAYKTTQANKHIIVACEGNPYVPVHFDASV
In the case of B1, the “binding to the LNCaP cell surface” value [4] is listed as “does not bind to the LNCaP cell surface”.
